According to patent US7771967B2, “Nucleic acid encoding apolipoprotein E-I3” (The J. David Gladstone Institutes, priority 2006, dated 2010):

Experiments:
apoE-I3 mRNA = assay: qRT-PCR of apoE-I3 in hippocampus and cortex of kainic acid-treated mice; assay type: in vivo, mouse; conditions: human apoE knock-in mice, n=3
Protocol: ApoE-I3 and apoE mRNA levels in different samples were determined in duplicate by quantitative fluorogenic reverse transcription-PCR (qRT-PCR) using GAPDH mRNA as an internal control. RT reactions were performed with Superscript First-strand Synthesis System Kits (Invitrogen, Carlsbad, Calif.) as described earlier. qRT-PCR reactions consisted of 10 μl of diluted cDNA reaction mixture (equivalent to 4.0 ng of RNA template), 12.5 μl of SYBR Green PCR master mix (Applied Biosystems), and 300 nM of each forward and backward primer in a final volume of 25 μl. Serial dilution of pooled cDNA samples from all cells or tissues were used to generate standard curves to determine the relative levels of specific mRNAs in individual samples. The apoE-I3 mRNA levels were then calculated and normalized to the internal GAPDH mRNA standards.
(§1) Kainic acid injections. Kainic acid crosses the blood-brain barrier and induces excitotoxic CNS injury, particularly in the hippocampus and neocortex. Wildtype and human apoE3 or apoE4 knock-in mice at 4-6 months of age were injected intraperitoneally with kainic acid (Sigma) dissolved in saline (0.9%) at 25 mg/kg body weight in one dose, as described. Within ˜15 min, all mice developed seizures. Seizure activity was assessed as described. […] Mice were killed 1-6 days after the injection of kainic acid.
Preparation of mouse brain tissues. […]

[1] = Kainic acid injection, seizure activity in mice; assay type: in vivo, mouse; conditions: 25 mg/kg intraperitoneally, wildtype and human apoE3 or apoE4 knock-in mice, all mice
Protocol: as §1

For `C=C(C)[C@H]1CN[C@H](C(=O)O)[C@H]1CC(=O)O` [kainic acid, Kainic acid], the “increase of apoE-I3 expression (qRT-PCR)” value (apoE-I3 mRNA; cortex) was “not in the cortex”, the “increase of apoE-I3 expression (qRT-PCR)” value (apoE-I3 mRNA; hippocampus) was “twofold” and the “time from injection to seizures” value [1] was ≤ 15 min.
